Reference: a melting point compilation (Tetko et al.; mined from patent text by program, amines drawn as free bases though some values may be those of a salt)

Row | SMILES | melting point [°C]
1 | CCOC(=O)c1cc2cc(Br)ccc2[nH]1 | 160 to 164
2 | C=Cc1ccc(OC)c(OC)c1[N+](=O)[O-] | 140 to 141
3 | CCCCN1CCC(CNC(=O)c2ccc(N)n3c(Cl)c(CC)nc23)CC1 | 86 to 90
4 | COc1cccc2c1C=C(C#N)CC2 | 66 to 68
5 | COC(=O)C(C#N)=C(Nc1cccnc1)SC | > 260
6 | CC(C)(CCBr)CC(=O)O | 53 to 55
7 | CCOC(=O)C(=CNc1cc(C)nn1CC)C(=O)OCC | 60 to 67
8 | Cc1cc(O)c(S(=O)Cc2ccc(Cl)cc2Cl)c(=O)o1 (stereo not drawn) | 144 to 146
9 | CCOC(=O)C(NS(=O)(=O)c1ccc(C)cc1)C1CCOC1C#N (stereo not drawn) | 105 to 107
10 | CC1Cc2c(N3C(=O)C4CCCCN4C3=O)ccc(Cl)c2O1 (stereo not drawn) | 145 to 148
11 | Cc1cccc(NC(=O)NC2N=C(c3ccccc3F)c3ccccc3N(Cc3cc(C(C)(C)C)ccn3)C2=O)c1 (racemic) | 142 to 144
12 | CCCCC1CCCCCc2c1oc(=O)c(C(c1ccccc1)C1CC1)c2O (stereo not drawn) | 78 to 82
13 | CNc1cc(-c2ccc(Cl)cc2)nc(C(=O)OC)c1N | 178 to 200
14 | Cc1nc(-c2cc(C)c(OCCCc3cc(C4CC4)no3)c(C)c2)no1 | 50.5 to 51
15 | Cc1ncc(-c2ccc([C@H](C)N3CC[C@](CCCO)(c4ccc(F)cc4)OC3=O)cc2)cn1 | 166 to 168
16 | Cc1ccc2ccc(N3C(=O)c4ccccc4C3OC(=O)N3CCN(C)CC3)nc2n1 (stereo not drawn) | 190
17 | O=C(NOCC(O)CO)c1cc(Cl)c(F)c(F)c1Nc1ccc(I)cc1Cl (stereo not drawn) | 152 to 154
18 | CN1CCSC1=NC(=Nc1ccccc1)N1CCCC1 | 160 to 162
19 | Cn1ncc(Cl)c(NCCCN2CCC(c3noc4cc(F)ccc34)CC2)c1=O | 117 to 119

Row | SMILES | melting point [°C]
20 | CNc1nc(-c2cccc(NC(=O)c3ccc(N4CCCC4)nc3)c2)c2cc(OC)c(OC)cc2n1 | 239 to 241
21 | COc1cc(OC)cc(OC(=S)N(C)C)c1 | 77 to 78
22 | CCC(C(O)C(C)C(O)C(C)CCc1ccc(C)c(O)c1C(=O)O)C1OC(CC)(C2CCC(O)(CC)C(C)O2)CC1C (stereo not drawn) | 151 to 153
23 | Nc1ccc(C#Cc2ccc(N3CCN4CCC3CC4)nn2)cc1 | 182 to 183
24 | Fc1cccc(COc2ccc(Nc3ncnc4cc(C#Cc5nccs5)sc34)cc2Cl)c1 | 235
25 | COC(=O)c1ccc(C(=O)C2CCC3=C(N=C(C(C)C)C(C(C)C)N3)C2=O)cc1 (stereo not drawn) | 82 to 84
26 | CCCCCCCCCCCSCCCN=C=O | 91 to 93
27 | CC(Cc1ccc(F)cc1F)C(N)=O (stereo not drawn) | 90 to 91
28 | O=S(Cc1nnc(-c2ccc3c(c2)CCO3)o1)c1cccc(F)c1 (stereo not drawn) | 131 to 132
29 | CC(C)(C)OC(=O)Nc1ccc(I)cc1N | 127 to 130
30 | CCCC1=C(C(=O)OCC)C(c2cccc(C)c2Cl)c2c[nH]nc2N1 (stereo not drawn) | 198 to 200
31 | NC(=O)c1snc(-c2cccc(C(F)(F)F)c2)c1N | 124
32 | Cc1cnc(-c2cc(-c3ccc(Cl)cc3)c(N3CCOCC3)s2)cc1OCC(F)(F)F | 177 to 178
33 | N#CC1=C(C2CC2)Nc2n[nH]cc2C1c1ccccc1Cl (stereo not drawn) | > 250
34 | Cc1ccc(S(=O)(=O)Nc2onc(C)c2Br)cc1 | 169 to 172
35 | COC(=O)C1=C(C)NC(C#N)=C(C(=O)OC)C1c1cccc([N+](=O)[O-])c1 (stereo not drawn) | 206 to 207
36 | C#CCOc1cc(-n2nc3c(Cl)cc(Cl)cn3c2=O)c(F)cc1C#N | 145 to 147
37 | CCOC(=O)c1cn(-c2ccc(OC)cc2)c2c(F)c(F)c(F)c(C)c2c1=O | 175 to 176
38 | N#CC(N)=C(C#N)NCc1ccc(Cl)c(Cl)c1 | 158 to 160

Row | SMILES | melting point [°C]
39 | CC(C)n1nc(-c2cnc3[nH]cc(C(=O)N[C@H](C)C(=O)N4CC(C#N)C4)c3n2)c2ccc(Cl)cc21 | 204 to 208
40 | CSC(=N)Nc1nc(C(C)(C)C)c(O)c(C(C)(C)C)n1 | 163 to 165
41 | CC1Sc2nc3c(cnn3C)c(=O)n2C1C (stereo not drawn) | 168 to 170
42 | CC1Cc2cccc(S(N)(=O)=O)c2N1 (stereo not drawn) | 110 to 112
43 | NC12CC=CCC1CCc1ccc(O)cc12 (stereo not drawn) | 156 to 161
44 | NS(=O)(=O)OCCOc1ccc(Br)cc1 | 134 to 137
45 | Oc1cc2[nH]c3c(O)c(O)ccc3c2cc1O | > 280
46 | CC(=O)NC(C)Cc1cc(C)c(C)cc1CC#N (stereo not drawn) | 140 to 141
47 | COc1ccc(COc2ccc3c(c2)OC(C)(C)C3c2ccc(C(C)C)cc2)cc1 (stereo not drawn) | 86 to 88
48 | COc1cc2c(cc1OC)[C@@H]1CCCC[C@@H]1N=C2c1ccc([N+](=O)[O-])c([N+](=O)[O-])c1 | 162 to 165
49 | CCCCOC(=O)c1cc(Cl)ccc1N | 37 to 39
50 | COc1nc(NC(=O)NS(=O)(=O)c2cccc3c2CCCC3)nc(OC)n1 | 171 to 173
51 | NC1(C2CCN(c3c(F)cc4c(=O)c(C(=O)O)cn(C5CC5)c4c3F)C2)CC1 (stereo not drawn) | 227 to 230
52 | Cn1cccc1S(=O)(=O)NC(C)(C)C | 125 to 126
53 | OCC[C@H]1CN(Cc2ccccc2)CCN1 | 78.9 to 80.4
54 | CCN(CC)C(=O)c1cc([N+](=O)[O-])cnc1CBr | 62 to 64
55 | CSc1noc(-c2ccc(O)cc2)c1C#N | 194 to 196
56 | CC(=O)OC1CCC2(C)C(=CCC3C2CCC2(C)C(C(C)CCCC(C)(C)C)CCC32)C1 (stereo not drawn) | 152 to 153
57 | Clc1nc(C2=NCCN2)[nH]c1Cl | 260

Further lines, results first:

Row | melting point [°C] | SMILES
58 | 169 to 170 | O=C1c2ccccc2C(=O)N1c1cccc(CBr)n1
59 | 157 to 158 | Cc1ccn(-c2ccc(S(C)(=O)=O)cc2)c1-c1ccc(F)cc1
60 | 130 | Cc1nc2c(c(-c3cccc([N+](=O)[O-])c3)c1C(=O)OCCO)C(=O)OC2
61 | 162 to 164 | O=C1CCCc2nc3ccccc3c(NCc3ccc(Cl)cc3)c21
62 | > 260 | O=C1c2ccccc2C(=O)c2sc(-c3ccco3)nc21
63 | 151 to 155 | N=C(Cc1ccccc1)NS(=O)(=O)C=Cc1ccc(Cl)c(Cl)c1
64 | 65 to 66 | CC(C)c1ccn2nc(SCc3ccccc3)nc2n1
65 | 183 to 185 | O=C(Oc1ccc([N+](=O)[O-])cc1)Oc1ccc2oc3ccccc3c2c1
66 | 148 to 149 | O=C(c1ccc(Cl)cc1)c1cccc2cc[nH]c12
67 | 93 | CCCCCCCNC(=O)N(C)c1cccc(-c2ccc(C=C(OC)C(=O)OC)cc2)c1
68 | 205 to 206 | COc1ccc(-c2ccccc2)c2sc(-c3ncc[nH]3)nc12
69 | 195 to 198 | COc1ccc(C2Sc3cc(Sc4ccccc4)ccc3NC(=O)C2O)cc1 (stereo not drawn)
70 | 136 to 139 | O=[N+]([O-])c1ccc(/C=C/c2ccccn2)cc1
71 | 158 to 159 | O=C(c1ccc(F)cc1)C1CCN(C(=O)Cc2ccc(OCc3ccccc3)cc2OCc2ccccc2)CC1
72 | 155 to 157 | Nc1c(-c2ccccc2)nn2ccccc12
73 | 80 to 82 | Fc1ccc(OC(CN2CCN(c3ccccc3)CC2)c2ccccc2)cc1 (stereo not drawn)
74 | 178 to 181 | CCCCc1nc(C(O)(C(C)C)C(C)C)c(C(N)=O)n1Cc1ccc(-c2ccccc2C(=O)O)cc1
75 | 102 to 103 | Cc1ccc2c(c1)C(C)(O)c1ccccc1C=C2 (stereo not drawn)
76 | 99 to 100 | Cc1cccc(C2=NN(C(=O)c3cccnc3)CC2)c1
77 | 131 to 133 | N#CCc1cccc2oc(Br)c(-c3ccccc3)c12
78 | 180 to 182 | Oc1cc2onc(-c3ccccc3F)c2cc1Cl
79 | > 300 | O=c1c2c(-c3ccccc3)n[nH]c2c2cccnc2n1-c1ccccc1
80 | 224 to 225 | O=c1c2cccc3c2n(c(=O)n1CC(O)CO)-c1cc(C(F)(F)F)ccc1S3=O (stereo not drawn)

Row | melting point [°C] | SMILES
81 | 143 to 145 | C[C@@H](O[C@H]1CCCN(Cc2n[nH]c(=O)[nH]2)[C@H]1c1ccccc1)c1cccc(C(F)(F)F)c1
82 | 101 | CS(=O)(=O)Nc1cc2c(cc1Oc1ccc(F)cc1F)C(=O)CC2c1ccccc1 (stereo not drawn)
83 | > 250 | NCc1cccc(-c2cnc(-c3ccc(Cl)c(Cl)c3)[nH]2)c1
84 | 70 to 72 | O=C1NC(=O)C(Sc2ccccn2)=C1Sc1ccccn1
85 | 98 to 99 | COc1ccc(C2Sc3c(ccc4ccccc34)N(CCCN(C)C)C(=O)C2OC(C)=O)cc1 (stereo not drawn)
86 | 166 to 167 | O=C(O)Cc1c(-c2ccccc2)nn(-c2cccc(C(F)(F)F)c2)c1-c1ccccc1
87 | 164 | CCCCc1ncc(CCC(=O)O)n1Cc1ccccc1Cl
88 | 235 to 236 | Cc1nc(-c2cccc([N+](=O)[O-])c2)sc1C(=O)O
89 | 162 to 164 | CC1(CC(=O)O)OCCc2nc(-c3ccc(Cl)cc3)sc21 (stereo not drawn)
90 | 201 to 203 | O=C(COc1ccccc1)Nc1ccccc1C(=O)O
91 | 78 to 79 | CC(C)COC(=O)Sc1ccc(-c2ccccc2)cc1
92 | 162 to 163 | Cc1csc(-c2ccc3c(=O)n(CC(C)C)c(CN)c(-c4ccccc4)c3c2)n1
93 | > 300 | O=C(O)c1nc2cc(-n3cccc3)c([N+](=O)[O-])cc2[nH]c1=O
94 | 133 to 134 | Clc1cc(Cl)n2c(-c3ccccc3)nc(Cl)c2n1
95 | 138 to 140 | O=C(O)Cc1cccc2c1ccn2Cc1ccccc1
96 | 85 to 90 | CN1C(=O)C(c2cccc(C#Cc3ccccc3)c2)(c2cc(C=O)n(CCCF)c2)N=C1N (stereo not drawn)
97 | 210 to 214 | CC(O)C(=O)N[C@H](C(=O)NC(Cc1ccccc1)C(O)CNCC(O)C(Cc1ccccc1)NC(=O)OC(C)(C)C)C(C)C (stereo partly drawn)
98 | 70 to 71 | CCc1nc(CN(C)C(=O)N[C@H](C(=O)N[C@@H](Cc2ccccc2)C[C@H](O)[C@H](Cc2ccccc2)NC(=O)OCc2cncs2)C(C)C)cs1
99 | 124 to 126 | CCc1cc(C(C)=O)c(OC)cc1OCc1cccc(C#N)c1
100 | 97 to 98 | COC(=O)c1cccc(OCc2nc(-c3ccccc3)oc2C)n1
101 | 120 to 122 | O=C(O)CCCCCCc1cn(-c2cccnc2)c2ccccc12
102 | 91 to 92 | CCOC(=O)[C@@H]1C[C@H](OS(=O)(=O)c2ccc(C)cc2)CN1C(=O)OCc1ccccc1
103 | 150 to 151 | Clc1nc(Cl)nc(-c2cccn2Cc2ccccc2)n1
